“Also recorded” adds a separate entry of the source. Read-outs that look alike come from different tables or passages of the source. Ends that are not written are not given here.
How the values were obtained:
ADNP+/− mice [1] = experiment: Elevated plus-maze in ADNP-deficient mice; assay type: in vivo, mouse; conditions: intranasal treatment, ADNP+/− male mice, 5 min
Source text: (§1) All procedures involving animals were approved by the Animal Care and Use Committee of Tel Aviv University and the National Institutes of Health (Bethesda, Md.). ADNP heterozygous mice, a model for cognitive impairments (Vulih-Shultzman et al., 2007, J. Pharmacol. Exp. Ther. 323:438-449), were housed in a 12-h light/12-h dark cycle facility, and free access to rodent chow and water was available.
SKIP (SEQ ID NO:6) treatment included daily intranasal administrations over a 1 month period to 5-month-old male mice (2 μg/5 μl/mouse/day). For intranasal administration, the peptide was dissolved in a vehicle solution, in which each milliliter included 7.5 mg of NaCl, 1.7 mg of citric acid monohydrate, 3 mg of disodium phosphate dihydrate, and 0.2 mg of benzalkonium chloride solution (50%). SKIP (SEQ ID NO:6) or vehicle solution (DD) was administered to mice hand-held in a semisupine position with nostrils facing the investigator. A pipette tip was used to administer 5 μl/each nostril. The mouse was handheld until the solution was totally absorbed (˜10 s). […]
The maze consisted of two open arms (50 cm×10 cm) and two closed arms 50 cm×10 cm×40 cm), with arms of each type opposite to each other. […] The data were analyzed using the following formula: D2=(b−a)/(b+a), when ‘a’ designated the time spent in the open arm and ‘b’ designated the time spent in the closed arm.

ADNP+/− mice [2] = experiment: Morris water maze in ADNP-deficient mice; assay type: in vivo, mouse; conditions: intranasal, twice a day, 1 month, ADNP+/− male mice
Source text: as §1
SKIP (SEQ ID NO:6) treatment included daily intranasal administrations over a 1 month period to 5-month-old male mice (2 μg/5 μl/mouse/day). […]
The apparatus was a pool with a diameter of 140 cm, filled with opaque water (23-24° C.). […] The time taken for an animal to reach the platform (latency) was recorded. The daily improvement (in seconds to reach the hidden platform) for each animal (in comparison to the starting day) was calculated. […] The platform was removed from the maze and the distance traveled and the time spent by the mice in the pool's quarter where the platform used to be, were recorded (for a maximal period of 90 s). Mouse behavior in the quarter that is most distant from the target quarter was also measured. All measurements were recorded as the percentage of the total time spent or total path traveled in the pool. To determine the general mobility of the mice in the pool, the swimming behavior of each animal was monitored and the total path length and swim velocity were calculated. […]

PC12 cells = conditions: ZnCl2 400 μM, 4 h
Description: FIG. 15: Rat pheochromocytoma cells (PC12) were seeded on Poly-D-Lysine coated 96-well tissue culture dishes in high concentration (30,000 cells/well). On the day of the experiment the cells were treated with ZnCl2 (400 μM) either alone or in combination with different concentration of SKIP for 4 h. After 4 h the cell viability was analyzed by MTS assay. […] All values are from one experiment performed in hexplicate.
Rat pheochromocytoma cell (PC12, ATCC, Bethesda, Md., USA) were grown in 10-cm tissue culture dishes (Corning). The base medium for this cell line was RPMI-1640 Medium (Invitrogen) supplemented with 10% heat-inactivated horse serum, 5% fetal bovine serum and solution containing 100 U/ml penicillin together with […] streptomycin (Biological Industries, Beit Haemek, Israel). The cells were incubated in 95% air; 5% CO2 in a humidified incubator at 37° C. The medium was changed every 2 to 3 days. The cells were subcultured when cell density reached 4×10^6 cells/ml. The cells were split in a ratio of 1:4.
On the day before the experiment cells were to be harvested, re-suspended and seeded on tissue culture dishes. For cell viability measurements, cells were seeded on Poly-D-Lysine coated 96-well tissue culture dishes (Sigma-Aldrich) at a concentration of 3×10^4 cells/well.
The cell viability is measured by colorimetric method that determines the number of viable cells in culture. This method is based on the bio-reduction of the tetrazolium compound [3-(4,5-dimethylthiazol-2-yl)-5-(3-carboxymethoxyphenyl)-2-(4-sulfophenyl)-2H-tetrazolium; MTS] by living cells into a colored formazan product. This reaction is occurring in the presence of an electron coupling reagent (phenazine ethosulfate; PES). The amount of formazan product is measured by ELISA plate reader at 490 nm and is directly proportional to the number of living cells in culture (CellTiter 96® AQueous One Solution Cell Proliferation Assay; Promega, Madison, Wis., USA).

ADNP+/− mice [3] = experiment: Object recognition test in ADNP-deficient mice; assay type: in vivo, mouse; conditions: intranasal, twice a day, 1 month, ADNP+/− male mice
Source text: as §1
SKIP (SEQ ID NO:6) treatment included daily intranasal administrations over a 1 month period to 5-month-old male mice (2 μg/5 μl/mouse/day). For intranasal administration, the peptide was dissolved in a vehicle solution, in which each milliliter included 7.5 mg of NaCl, 1.7 mg of citric acid monohydrate, 3 mg of disodium phosphate dihydrate, and 0.2 mg of benzalkonium chloride solution (50%). SKIP (SEQ ID NO:6) or vehicle solution (DD) was administered to mice hand-held in a semisupine position with nostrils facing the investigator. A pipette tip was used to administer 5 μl/each nostril. The mouse was handheld until the solution was totally absorbed (˜10 s). Nasal SKIP (SEQ ID NO:6) application was performed daily, twice a day, for 1 month (5 days a week). After 1 month, SKIP (SEQ ID NO:6) was applied 2 h before the behavioral tests (described below).
The test includes 2 consecutive days of habituation (five minutes per day) and the experimental day which consists of the three phases. The test was conducted two hours after the daily intranasal SKIP (SEQ ID NO:6). During the first phase (Phase 1, habituation phase), the open field apparatus (arena of 50×50 cm) contained two identical objects (samples) and a mouse was placed in the apparatus facing the wall and allowed to freely explore the objects. At the end of the 5-min session of Phase 1, the mouse was put back into its home cage for 3 hours. […] The time spent sniffing/touching each object was measured. The data was analyzed using the following formula: D1=b−a, when ‘a’ designated the time of exploration of the familiar object and ‘b’ designated the time of exploration of the novel object. […]

## SKIP (not fully specified (N-terminus, C-terminus)) [SKIP (SEQ ID NO:6), 4-amino acid peptide Ser-Lys-Ile-Pro]
ADNP+/− mice [1]
  risky behavior, time spent in open vs closed arms: reduction in the risky behavior; also recorded: improvement in the risky behavior
ADNP+/− mice [2]
  water maze first daily test (reference memory), latency to hidden platform: improved learning on the 2nd day; also recorded: improved the memory
  water maze second daily test, 5th day, latency to hidden platform: improvement in the behavior of the ADNP-deficient mice, bringing them to the control levels
PC12 cells; peptide 10^−9M
  protection against Zn intoxication (MTS viability vs Zn alone): showed protection
PC12 cells; peptide 10^−15M
  protection against Zn intoxication (MTS viability vs Zn alone): showed protection
ADNP+/− mice [3]
  object recognition, Phase 2 short retention (discrimination index D1): improved short and long term memory
  object recognition, Phase 3 long retention, 24 hours (discrimination index D1): improvement in long term memory for the ADNP-deficient mice, bringing them to the control levels; also recorded: improved short and long term memory

From patent US10118943B2, “Compounds and methods for inhibiting cell death” (Ramot at Tel-Aviv University Ltd., priority 2012, dated 2018)
